The target in assay [1] is T1, Tyrosinase (Agaricus bisporus) (UniProt O42713).
T1 sequence (whole entry): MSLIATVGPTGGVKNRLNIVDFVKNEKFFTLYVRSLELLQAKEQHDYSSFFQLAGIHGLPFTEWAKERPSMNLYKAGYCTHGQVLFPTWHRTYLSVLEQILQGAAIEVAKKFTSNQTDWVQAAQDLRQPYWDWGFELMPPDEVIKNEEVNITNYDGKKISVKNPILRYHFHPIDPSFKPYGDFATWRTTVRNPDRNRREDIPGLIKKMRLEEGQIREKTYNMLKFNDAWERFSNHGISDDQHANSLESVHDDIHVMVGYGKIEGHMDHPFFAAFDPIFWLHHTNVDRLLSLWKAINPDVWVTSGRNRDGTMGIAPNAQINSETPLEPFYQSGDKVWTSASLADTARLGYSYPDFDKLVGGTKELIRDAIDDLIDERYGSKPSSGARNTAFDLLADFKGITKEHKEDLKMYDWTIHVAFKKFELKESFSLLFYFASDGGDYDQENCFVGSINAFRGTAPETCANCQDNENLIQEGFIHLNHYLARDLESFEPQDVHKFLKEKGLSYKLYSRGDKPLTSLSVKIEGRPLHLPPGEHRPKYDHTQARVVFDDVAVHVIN
The assay is described as follows: Potency index, ratio of IC50 for kojic acid to IC50 for test compound for inhibition of mushroom tyrosinase diphenolase activity.

Assay [2] deals with T1, Tyrosinase (Agaricus bisporus). The assay is described as follows: Reversible inhibition of mushroom tyrosinase diphenolase activity using L-DOPA as substrate at 0.25 to 2.0 uM.
For assay [3] the target is unchanged. The assay is described as follows: Competitive inhibition of mushroom tyrosinase diphenolase activity using L-DOPA as substrate at 1.25 to 20 uM by Lineweaver Burk plot analysis.
Assay [4] concerns the target T2, Tyrosinase (Agaricus bisporus, UniProt O42713).
T2 sequence (O42713 whole entry): T1 sequence (whole entry)

In assay [5] the target is T2, Tyrosinase. This is another data set of the same source.
Description: Competitive inhibition of mushroom tyrosinase polyphenol oxidase activity using L-DOPA as substrate by Dixon plot analysis
Assay [6] has as its target T1, Tyrosinase (Agaricus bisporus). The assay is described as follows: Inhibition of mushroom tyrosinase diphenolase activity using L-DOPA as substrate.

Calls of active or inactive are those of the source. No cut-off for these calls is given here.

In general, IC50 refers to the midpoint of a concentration-inhibition curve. A high value points to weaker potency in that assay. By Ki is commonly meant the equilibrium dissociation constant of an inhibitor or competing ligand from its target. Higher therefore signals lower affinity.

Consider `O=C1/C(=C\c2ccc(O)cc2O)Cc2ccccc21`, for which the Ratio IC50 in assay [1] stood at 2.23. The inhibition result in assay [2] and in assay [3] was “Active” throughout. At Tyrosinase [4], this compound displayed an IC50 of 12.3 µM. This compound also came in with a Ki on Tyrosinase [5] of 10.3 µM. Moreover, the inhibition entry in assay [6] was “Dose-dependent effect”.

Regarding `O=C1/C(=C\c2ccc(O)c(O)c2)Cc2ccccc21`, the Ratio IC50 in assay [1] is 3.35. Moreover, the inhibition entry in assay [2] and in assay [3] was “Active” in each case. Also, on Tyrosinase [4], it took 8.2 µM to reach half-maximal inhibition (IC50). Affinity at Tyrosinase [5] was put at a Ki of 8.7 µM. The inhibition result in assay [6] is “Dose-dependent effect”.

The values are drawn from ChEMBL document CHEMBL3632489, “Inhibitory kinetics of novel 2,3-dihydro-1H-inden-1-one chalcone-like derivatives on mushroom tyrosinase” (Bioorg Med Chem Lett, 2015).
